In patent publication US12187729B2, “Compounds having PDE9A inhibitory activity, and pharmaceutical uses thereof” (KOREA RESEARCH INSTITUTE OF CHEMICAL TECHNOLOGY, priority 2018, dated 2025):

Each molecule was assayed against PDE9A (Homo sapiens (Human), UniProt O76083) (assay: PDE9A inhibitory activity, fluorescence polarization assay (IMAP-FP screening express kit)). Conditions: enzyme PDE9A 5 ng/ml, Fl-cGMP substrate 100 nM, room temperature 1 hour.
Type: biochemical
Experimental: The inhibitory activity of the representative compounds according to the present invention against phosphodiesterase 9A was tested based on the polarization assay (IMAP-FP screening express kit) provided by MDS (MDS Analytical Technologies, Sunyvale, CA, USA). As a buffer solution, a reaction solution (a reaction solution containing 0.01% Tween 20 provided by MDS was diluted 5 times, then 5 mM DTT is added) and a polarization detection solution (binding solution A and B provided by MDS were mixed at a ratio of 3:1 and IMAP binding reagent 1/600 was added) were prepared. 100 μM of the substrate (Fl-cGMP substrate; MDS) and 3.6 μg/ml of the enzyme PDE9A (ab54113; abeam) were prepared. 3.6 μg/ml PDE9A and 100 μM substrate were diluted to 20 ng/ml (final reaction concentration: 5 ng/ml) and 400 nM (final reaction concentration: 100 nM), respectively. The buffer solution used for all dilution and preparation processes was 1× reaction solution with 1 mM DTT added, and the polarization detection solution was used to induce polarization at the end.
The prepared samples were dispensed on black microplates (Multiwell 384 well plates, #3573, Corning Life Sciences, Lowell, MA, USA) using a 16-channel pipette (multi 16-channel, Finnpipette, Thermo Scientific, Essex, UK). The total reaction volume per well is 20 μl. At this time, 10 μl of 2% DMSO, 5 μl of substrate solution, and 5 μl of reaction solution were used as a negative control, and 10 μl of 2% DMSO, 5 μl of substrate solution, and 5 μl of PDE9A solution were used as a positive control. As the experimental group, 10 μl of the compound prepared in Example, 5 μl of the substrate solution, and 5 μl of the PDE9A solution were used. After pretreatment between the compound and the enzyme was performed for about […] before the enzyme-substrate reaction, 5 μl of cGMP was added to induce the enzyme reaction. During the reaction, each compound, enzyme, and substrate occupied 50%, 25%, and 25% of the total volume, respectively, and they were prepared at high concentrations of 2, 4, and 4 times, respectively, immediately before addition. After the enzymatic reaction, it was shaken lightly for 1 minute and the enzyme reaction was induced at room temperature for 1 hour. Then, 60 μl of a polarization detection solution prepared in advance was added to induce polarization.
Nanoparticles composed of trivalent metal ions are mixed in the fluorescence detection solution, which combines with phosphoric acid expose by enzymatic reaction to increase the molecular weight and induce polarization. After leaving for 2 hours at room temperature, the polarization (Fluorescence Polarization, FP) value was measured using a multilabel counter (Envision, PerkinElmer, Turku, Finland) (emission wavelength: P-535 nm, S-535 nm, excitation wavelength: 480 nm), and the result was expressed as an IC50 value, which is the concentration of the compound that inhibited PDE9A by 50% in vitro (Table 2).

Chain of PDE9A (O76083 whole entry): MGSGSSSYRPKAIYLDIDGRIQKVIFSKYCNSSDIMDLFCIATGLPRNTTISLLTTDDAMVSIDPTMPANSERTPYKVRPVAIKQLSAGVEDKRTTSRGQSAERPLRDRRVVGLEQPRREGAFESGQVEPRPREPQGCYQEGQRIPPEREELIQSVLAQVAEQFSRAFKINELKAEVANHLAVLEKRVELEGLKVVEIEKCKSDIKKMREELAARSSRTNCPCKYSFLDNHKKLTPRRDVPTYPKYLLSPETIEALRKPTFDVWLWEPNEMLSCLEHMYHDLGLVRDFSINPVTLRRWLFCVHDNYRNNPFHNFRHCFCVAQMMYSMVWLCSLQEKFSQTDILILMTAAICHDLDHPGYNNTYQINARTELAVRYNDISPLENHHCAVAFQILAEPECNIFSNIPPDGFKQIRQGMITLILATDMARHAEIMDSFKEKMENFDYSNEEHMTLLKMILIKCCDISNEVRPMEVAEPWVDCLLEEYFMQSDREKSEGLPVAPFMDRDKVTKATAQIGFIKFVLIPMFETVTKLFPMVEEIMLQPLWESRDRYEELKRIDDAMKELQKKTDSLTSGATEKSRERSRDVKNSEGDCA

Row | Molecule | IC50
1 | CCSc1nnc(N(C)C(=O)CSc2nc3c(cnn3-c3ccccc3)c(=O)[nH]2)s1 [Example 18, N-(5-(ethylthio)-1,3,4-thiadiazol-2-yl)-N-methyl-2-((4-oxo-1-phenyl-4,5-dihydro-1H-pyrazolo[3,4-d]pyrimidin-6-yl)thio)acetamide] | 470 nM
2 | O=C(CSc1nc2c(cnn2-c2ccccc2)c(=O)[nH]1)Nc1nncs1 [Example 4, 2-((4-oxo-1-phenyl-4,5-dihydro-1H-pyrazolo[3,4-d]pyrimidin-6-yl)thio)-N-(1,3,4-thiadiazol-2-yl)acetamide] | 230 nM
3 | O=C(CSc1nc2c(cnn2-c2ccccc2)c(=O)[nH]1)Nc1nnc(-c2ccc(F)cc2)s1 [Example 23, N-(5-(4-fluorophenyl)-1,3,4-thiadiazol-2-yl)-2-((4-oxo-1-phenyl-4,5-dihydro-1H-pyrazolo[3,4-d]pyrimidin-6-yl)thio)acetamide] | 10 nM
4 | Cc1ccc(-c2nnc(NC(=O)CSc3nc4c(cnn4-c4ccccc4)c(=O)[nH]3)s2)cc1 [Example 24, 2-((4-oxo-1-phenyl-4,5-dihydro-1H-pyrazolo[3,4-d]pyrimidin-6-yl)thio)-N-(5-(p-tolyl)-1,3,4-thiadiazol-2-yl)acetamide] | 41 nM
5 | CCSc1nnc(NC(=O)CSc2nc3c(cnn3-c3ccccc3)c(=O)[nH]2)s1 [Example 2, N-(5-(ethylthio)-1,3,4-thiadiazol-2-yl)-2-((4-oxo-1-phenyl-4,5-dihydro-1H-pyrazolo[3,4-d]pyrimidin-6-yl)thio)acetamide] | 10 nM
6 | O=C(CSc1nc2c(cnn2-c2ccccc2)c(=O)[nH]1)Nc1nnc(SCc2ccc(Cl)cc2)s1 [Example 8] | 19 nM
7 | Cc1nnc(NC(=O)CSc2nc3c(cnn3-c3ccccc3)c(=O)[nH]2)s1 [Example 3, N-(5-methyl-1,3,4-thiadiazol-2-yl)-2-((4-oxo-1-phenyl-4,5-dihydro-1H-pyrazolo[3,4-d]pyrimidin-6-yl)thio)acetamide] | 340 nM
8 | N-(5-(methylthio)-1,3,4-thiadiazol-2-yl)-2-((4-oxo-1-phenyl-4,5-dihydro-1H-pyrazolo[3,4-d]pyrimidin-6-yl)thio)acetamide [Example 13] | 29 nM
9 | O=C(CSc1nc2c(cnn2-c2ccccc2)c(=O)[nH]1)Nc1nnc(SCc2ccccc2)s1 [Example 6] | 14 nM
10 | CCc1nnc(NC(=O)CSc2nc3c(cnn3-c3ccccc3)c(=O)[nH]2)s1 [Example 5, N-(5-ethyl-1,3,4-thiadiazol-2-yl)-2-((4-oxo-1-phenyl-4,5-dihydro-1H-pyrazolo[3,4-d]pyrimidin-6-yl)thio)acetamide] | 180 nM
11 | Cc1ccc(-c2nnc(NC(=O)C(C)Sc3nc4c(cnn4-c4ccccc4)c(=O)[nH]3)s2)cc1 (centres unmarked) [Example 20, 2-((4-oxo-1-phenyl-4,5-dihydro-1H-pyrazolo[3,4-d]pyrimidin-6-yl)thio)-N-(5-(p-tolyl)-1,3,4-thiadiazol-2-yl)propanamide] | 19 nM
12 | O=C(CSc1nc2c(cnn2C2CCC(F)(F)CC2)c(=O)[nH]1)Nc1nnc(Br)s1 [Example 21, 2-((1-(4,4-difluorocyclohexyl)-4-oxo-4,5-dihydro-1H-pyrazolo[3,4-d]pyrimidin-6-yl)thio)-N-(5-bromo-1,3,4-thiadiazol-2-yl)acetamide] | 0.4 nM

Further lines, results first:

Row | IC50 | Molecule
13 | 0.1 nM | CCSc1nnc(NC(=O)C(C)Sc2nc3c(cnn3C3CCC(F)(F)CC3)c(=O)[nH]2)s1 (centres unmarked) [Example 28, 2-((1-(4,4-difluorocyclohexyl)-4-oxo-4,5-dihydro-1H-pyrazolo[3,4-d]pyrimidin-6-yl)thio)-N-(5-(ethylthio)-1,3,4-thiadiazol-2-yl)propanamide]
14 | 0.1 nM | CC(Sc1nc2c(cnn2C2CCOCC2)c(=O)[nH]1)C(=O)Nc1nnc(Cl)s1 (centres unmarked) [Example 47, N-(5-chloro-1,3,4-thiadiazol-2-yl)-2-((4-oxo-1-(tetrahydro-2H-pyran-4-yl)-4,5-dihydro-1H-pyrazolo[3,4-d]pyrimidin-6-yl)thio)propanamide]
15 | 0.7 nM | O=C(CSc1nc2c(cnn2C2CCOCC2)c(=O)[nH]1)Nc1nnc(Cl)s1 [Example 36, N-(5-chloro-1,3,4-thiadiazol-2-yl)-2-((4-oxo-1-(tetrahydro-2H-pyran-4-yl)-4,5-dihydro-1H-pyrazolo[3,4-d]pyrimidin-6-yl)thio)acetamide]
16 | 9 nM | CCSc1nnc(NC(=O)C(Sc2nc3c(cnn3-c3ccccc3)c(=O)[nH]2)c2ccccc2)s1 (centres unmarked) [Example 26, N-(5-(ethylthio)-1,3,4-thiadiazol-2-yl)-2-((4-oxo-1-phenyl-4,5-dihydro-1H-pyrazolo[3,4-d]pyrimidin-6-yl)thio)-2-phenylacetamide]
17 | 0.5 nM | CCSc1nnc(NC(=O)CSc2nc3c(cnn3C3CCOCC3)c(=O)[nH]2)s1 [Example 27, N-(5-(ethylthio)-1,3,4-thiadiazol-2-yl)-2-((4-oxo-1-(tetrahydro-2H-pyran-4-yl)-4,5-dihydro-1H-pyrazolo[3,4-d]pyrimidin-6-yl)thio)acetamide]
18 | 1 nM | O=C(CSc1nc2c(cnn2C2CCCCC2)c(=O)[nH]1)Nc1nnc(Br)s1 [Example 35, N-(5-bromo-1,3,4-thiadiazol-2-yl)-2-((4-oxo-1-cyclohexyl-4,5-dihydro-1H-pyrazolo[3,4-d]pyrimidin-6-yl)thio)acetamide]
19 | 3 nM | CC(C)n1ncc2c(=O)[nH]c(SCC(=O)Nc3nnc(Cl)s3)nc21 [Example 43, N-(5-chloro-1,3,4-thiadiazol-2-yl)-2-((1-isopropyl-4-oxo-4.5-dihydro-1H-pyrazolo[3,4-d]pyrimidin-6-yl)thio)acetamide]
20 | 0.3 nM | CC(Sc1nc2c(cnn2C2CCC(F)(F)CC2)c(=O)[nH]1)C(=O)Nc1nnc(Cl)s1 (centres unmarked) [Example 48, N-(5-chloro-1,3,4-thiadiazol-2-yl)-2-((1-(4,4-difluorocyclohexyl)-4-oxo-4,5-dihydro-1H-pyrazolo[3,4-d]pyrimidin-6-yl)thio)propanamide]
